What all share (type): cell-based
The target of assay [1] is proteins of HEK293T cells transiently overexpressing caspase-6 (Homo sapiens, UniProt Q14566). The note with it: exp_ref Probe; protein MCM6 (Q14566); analysis C6.
Assay [2] has as its target proteins of HEK293T cells transiently overexpressing caspase-6 (Homo sapiens, UniProt P39023). The note with it: exp_ref Probe; protein RPL3 (P39023); analysis C6.
The target of assay [3] is proteins of HEK293T cells transiently overexpressing caspase-6 (Homo sapiens, UniProt P15880). The note with it: protein RPS2 (P15880).
Assay [4] deals with proteins of HEK293T cells transiently overexpressing caspase-6 (Homo sapiens, UniProt Q9Y5M8). As to conditions: exp_ref Probe; protein SRPRB (Q9Y5M8); analysis C6.
proteins of HEK293T cells transiently overexpressing caspase-6 (Homo sapiens, UniProt Q9Y5M8), sequence (Q9Y5M8 whole entry): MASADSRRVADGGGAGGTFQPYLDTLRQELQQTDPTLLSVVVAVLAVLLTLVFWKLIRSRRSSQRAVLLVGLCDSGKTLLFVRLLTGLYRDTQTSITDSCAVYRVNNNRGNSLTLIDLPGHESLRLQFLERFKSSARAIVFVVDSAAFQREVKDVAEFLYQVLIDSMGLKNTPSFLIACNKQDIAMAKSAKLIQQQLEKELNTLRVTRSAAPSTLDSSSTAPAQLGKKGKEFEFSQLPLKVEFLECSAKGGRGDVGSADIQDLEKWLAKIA
The target of assay [5] is proteins of HEK293T cells transiently overexpressing caspase-6 (Homo sapiens, UniProt P22087). As to conditions: exp_ref Probe; protein FBL (P22087); analysis C6.
proteins of HEK293T cells transiently overexpressing caspase-6 (Homo sapiens, UniProt P22087), sequence (P22087 whole entry): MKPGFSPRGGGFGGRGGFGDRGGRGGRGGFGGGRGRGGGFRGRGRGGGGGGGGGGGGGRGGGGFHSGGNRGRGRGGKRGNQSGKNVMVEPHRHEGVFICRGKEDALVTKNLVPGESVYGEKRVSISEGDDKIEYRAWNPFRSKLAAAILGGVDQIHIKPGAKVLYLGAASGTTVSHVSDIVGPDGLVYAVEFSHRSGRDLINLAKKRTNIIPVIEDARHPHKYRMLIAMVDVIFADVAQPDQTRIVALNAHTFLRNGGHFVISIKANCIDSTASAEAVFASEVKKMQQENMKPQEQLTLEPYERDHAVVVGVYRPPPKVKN
In assay [6] the target is T1, proteins of HEK293T cells transiently overexpressing caspase-6 (Homo sapiens, UniProt P09622).
T1 sequence (P09622 36-509): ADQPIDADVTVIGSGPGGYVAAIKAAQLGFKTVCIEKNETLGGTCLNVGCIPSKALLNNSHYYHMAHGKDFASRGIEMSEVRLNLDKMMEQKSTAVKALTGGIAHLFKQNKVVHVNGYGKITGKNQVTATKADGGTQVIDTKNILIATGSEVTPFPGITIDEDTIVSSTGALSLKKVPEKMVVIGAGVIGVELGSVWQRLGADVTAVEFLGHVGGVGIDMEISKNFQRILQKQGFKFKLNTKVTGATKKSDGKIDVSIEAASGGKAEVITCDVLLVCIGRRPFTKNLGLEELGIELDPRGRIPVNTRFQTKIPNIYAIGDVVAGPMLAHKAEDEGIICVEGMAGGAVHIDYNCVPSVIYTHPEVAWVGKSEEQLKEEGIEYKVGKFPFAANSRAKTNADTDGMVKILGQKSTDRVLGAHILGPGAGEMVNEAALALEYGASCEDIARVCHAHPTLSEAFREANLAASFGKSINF

Assay [7] deals with proteins of HEK293T cells transiently overexpressing caspase-6 (Homo sapiens, UniProt P00492). As to conditions: Probe; protein HPRT1 P00492.
proteins of HEK293T cells transiently overexpressing caspase-6 (Homo sapiens, UniProt P00492), sequence (P00492 whole entry): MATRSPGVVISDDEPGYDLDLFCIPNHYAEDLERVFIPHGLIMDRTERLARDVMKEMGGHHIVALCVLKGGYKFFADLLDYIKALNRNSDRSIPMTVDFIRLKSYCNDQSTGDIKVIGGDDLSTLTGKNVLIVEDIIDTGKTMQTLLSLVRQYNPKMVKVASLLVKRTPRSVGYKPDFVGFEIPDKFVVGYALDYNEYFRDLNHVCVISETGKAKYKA
Assay [8] deals with proteins of HEK293T cells transiently overexpressing caspase-6 (Homo sapiens, UniProt P13804). As to conditions: exp_ref Probe; protein ETFA (P13804); analysis C6.
proteins of HEK293T cells transiently overexpressing caspase-6 (Homo sapiens, UniProt P13804), sequence (P13804 20-333): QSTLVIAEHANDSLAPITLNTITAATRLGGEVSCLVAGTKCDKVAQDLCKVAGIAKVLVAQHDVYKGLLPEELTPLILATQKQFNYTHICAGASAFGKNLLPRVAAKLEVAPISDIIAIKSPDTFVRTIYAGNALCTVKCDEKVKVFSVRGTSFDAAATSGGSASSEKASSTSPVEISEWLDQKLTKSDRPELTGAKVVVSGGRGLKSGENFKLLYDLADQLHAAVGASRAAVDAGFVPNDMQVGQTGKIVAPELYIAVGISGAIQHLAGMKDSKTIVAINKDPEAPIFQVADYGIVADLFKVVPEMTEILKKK
The target of assay [9] is T2, proteins of HEK293T cells transiently overexpressing caspase-6 (Homo sapiens, UniProt Q9BQG0).
T2 sequence (Q9BQG0 1-1328): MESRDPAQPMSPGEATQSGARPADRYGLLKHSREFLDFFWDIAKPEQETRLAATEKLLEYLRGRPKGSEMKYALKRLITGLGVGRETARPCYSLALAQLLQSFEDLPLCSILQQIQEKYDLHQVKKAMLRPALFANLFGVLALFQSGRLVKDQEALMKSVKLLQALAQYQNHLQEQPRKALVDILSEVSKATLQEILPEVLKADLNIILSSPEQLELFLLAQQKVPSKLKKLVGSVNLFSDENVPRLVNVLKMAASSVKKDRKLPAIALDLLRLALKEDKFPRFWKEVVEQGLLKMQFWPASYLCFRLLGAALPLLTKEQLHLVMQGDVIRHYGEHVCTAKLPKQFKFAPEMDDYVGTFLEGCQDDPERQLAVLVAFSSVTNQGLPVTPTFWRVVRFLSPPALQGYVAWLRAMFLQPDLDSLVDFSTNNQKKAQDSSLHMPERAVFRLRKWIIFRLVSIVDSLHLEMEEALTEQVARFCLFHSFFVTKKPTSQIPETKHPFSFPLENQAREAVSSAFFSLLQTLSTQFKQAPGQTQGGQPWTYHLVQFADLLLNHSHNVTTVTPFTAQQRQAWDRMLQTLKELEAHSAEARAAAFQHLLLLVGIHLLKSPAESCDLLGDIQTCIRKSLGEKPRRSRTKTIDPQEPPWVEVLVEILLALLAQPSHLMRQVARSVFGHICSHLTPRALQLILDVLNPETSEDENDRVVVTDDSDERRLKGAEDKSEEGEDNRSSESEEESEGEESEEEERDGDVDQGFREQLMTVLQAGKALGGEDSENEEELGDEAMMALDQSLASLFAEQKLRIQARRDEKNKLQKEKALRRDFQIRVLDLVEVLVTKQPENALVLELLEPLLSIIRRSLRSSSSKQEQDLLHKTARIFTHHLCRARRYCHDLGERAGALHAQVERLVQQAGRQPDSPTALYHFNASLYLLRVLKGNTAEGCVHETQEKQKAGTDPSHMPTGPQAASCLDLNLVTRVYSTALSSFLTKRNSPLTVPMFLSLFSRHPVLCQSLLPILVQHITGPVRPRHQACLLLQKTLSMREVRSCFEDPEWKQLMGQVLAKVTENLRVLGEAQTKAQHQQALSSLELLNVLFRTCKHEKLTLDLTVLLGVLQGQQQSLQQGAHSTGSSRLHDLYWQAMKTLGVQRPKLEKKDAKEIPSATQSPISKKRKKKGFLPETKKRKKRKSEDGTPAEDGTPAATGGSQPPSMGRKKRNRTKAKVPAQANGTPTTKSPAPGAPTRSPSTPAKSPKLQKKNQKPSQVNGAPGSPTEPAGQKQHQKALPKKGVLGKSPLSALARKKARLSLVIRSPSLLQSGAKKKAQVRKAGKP
The note with it: protein MYBBP1A (Q9BQG0).

Each structure is given as a SMILES string.

proteins of HEK293T cells transiently overexpressing caspase-6 (Homo sapiens, UniProt Q14566), sequence (Q14566 whole entry): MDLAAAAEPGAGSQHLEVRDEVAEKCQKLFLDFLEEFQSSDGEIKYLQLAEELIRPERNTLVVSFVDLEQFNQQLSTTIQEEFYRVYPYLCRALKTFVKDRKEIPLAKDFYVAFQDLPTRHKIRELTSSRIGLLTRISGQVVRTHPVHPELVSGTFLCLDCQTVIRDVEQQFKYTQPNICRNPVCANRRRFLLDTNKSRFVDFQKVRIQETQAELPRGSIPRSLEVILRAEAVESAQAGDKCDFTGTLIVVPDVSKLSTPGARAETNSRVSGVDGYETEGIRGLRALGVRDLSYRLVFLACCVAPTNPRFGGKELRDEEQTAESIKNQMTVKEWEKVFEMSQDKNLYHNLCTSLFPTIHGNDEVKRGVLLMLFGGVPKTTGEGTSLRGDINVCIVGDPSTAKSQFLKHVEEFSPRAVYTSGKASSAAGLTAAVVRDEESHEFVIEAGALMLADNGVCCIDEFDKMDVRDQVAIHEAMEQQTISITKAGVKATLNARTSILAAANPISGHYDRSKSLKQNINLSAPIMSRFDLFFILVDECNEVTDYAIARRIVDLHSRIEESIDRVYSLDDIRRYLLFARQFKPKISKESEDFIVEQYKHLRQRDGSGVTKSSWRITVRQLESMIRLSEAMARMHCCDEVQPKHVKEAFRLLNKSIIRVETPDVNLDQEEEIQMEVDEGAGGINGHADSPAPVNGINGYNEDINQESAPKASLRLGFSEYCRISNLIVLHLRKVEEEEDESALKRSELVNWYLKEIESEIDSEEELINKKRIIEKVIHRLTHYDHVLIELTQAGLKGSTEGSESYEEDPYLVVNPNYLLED

Regarding `C#CCOc1ccc([C@@H]2C[C@@H](C(=O)Nc3ccc(OC(F)(F)F)cc3)CN(S(=O)(=O)C=C)C2)cc1` (relative stereo) [13-t], the enrich.exp.med was 0.05791 in assay [1]; -0.06221 in assay [2]; 0.988 in assay [3] (exp_ref Probe, analysis C6); 0.6428 in [4]; 0.8492 in assay [5]; -1.39 in [6] (Probe, protein DLD P09622). Besides, the enrich.exp.med is listed as -1.112 in assay [7]; 0.5734 in assay [8]; 1.154 in [9] (exp_ref Probe, analysis C6). For the same compound, the enrich.exp.med.lin in assay [3] came out at 1.9835; in assay [6] (protein DLD (P09622)), 0.3817; in [9] it was 2.225. For the same compound, the enrich.exp.med.log2 is reported as 0.988 in assay [3], -1.39 in assay [6] (protein DLD (P09622)) and 1.154 in [9].

The values above are taken from PMC10176470, “Engaging a Non-catalytic Cysteine Residue Drives Potent and Selective Inhibition of Caspase-6” (Journal of the American Chemical Society, 2023).
